Like-named read-outs stand apart in the source and are kept apart here.

The target in the assay is T1, human CGT (Homo sapiens, UniProt Q16880).
T1 sequence (Q16880 21-541): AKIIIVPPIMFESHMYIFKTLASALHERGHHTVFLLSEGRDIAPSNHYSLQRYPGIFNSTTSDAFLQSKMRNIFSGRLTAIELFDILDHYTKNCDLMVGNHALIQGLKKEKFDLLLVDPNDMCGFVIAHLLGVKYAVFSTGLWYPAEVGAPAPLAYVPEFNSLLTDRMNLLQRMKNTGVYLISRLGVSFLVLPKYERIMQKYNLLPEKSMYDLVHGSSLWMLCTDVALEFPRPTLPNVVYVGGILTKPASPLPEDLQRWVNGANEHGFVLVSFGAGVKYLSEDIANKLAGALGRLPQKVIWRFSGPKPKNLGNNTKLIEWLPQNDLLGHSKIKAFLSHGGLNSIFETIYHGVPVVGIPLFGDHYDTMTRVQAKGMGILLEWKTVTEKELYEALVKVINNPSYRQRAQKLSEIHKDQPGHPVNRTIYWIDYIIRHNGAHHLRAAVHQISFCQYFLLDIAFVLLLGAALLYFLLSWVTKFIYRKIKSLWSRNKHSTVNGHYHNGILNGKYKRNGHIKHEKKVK
The assay is described as follows: Assay 1: CGT Enzymatic Assay (RapidFire/MS/MS, 0.01% Tween 80). In kind it is biochemical. As to conditions: Table 1, Compounds of Formula (I) and Formula (II), CGT enzymatic assay, read-out: IC50.

Setting [1] is: C6-NBD-dihydro-galactosylceramide readout.

Usually IC50 stands for the concentration that gives 50% inhibition. `O=C1N(c2ccc(Br)cc2)CC(O)(c2ccccc2)N1c1ccc(Cl)cc1` (stereo not shown) [Example 43, 1-(4-bromophenyl)-3-(4-chlorophenyl)-4-hydroxy-4-phenylimidazolidin-2-one]: the IC50 was in the range of 1000 to 10000 nM. The same measure, in the same setting: in the case of `CC[C@H]1N(c2ccc(Br)cc2)C(=O)N(c2ccc(Br)cc2)C1(O)c1cccc(C)c1` (stereo partly drawn) [Compound 76-2, (5R)-1,3-bis(4-bromophenyl)-5-ethyl-4-hydroxy-4-(m-tolyl)imidazolidin-2-one] it was under 1000 nM; in that of `N#Cc1cccc(C2(O)N(c3ccc(C(F)(F)F)cc3)C(=O)N(c3ccc(C(F)(F)F)cc3)C23CCC3)c1` (stereo not shown) [Example 212, 3-(8-hydroxy-6-oxo-5,7-bis(4-(trifluoromethyl)phenyl)-5,7-diazaspiro[3.4]octan-8-yl)benzonitrile], under 1000 nM. As for `N#Cc1ccc(N2C(=O)N(c3ccc(Br)cc3)C(O)(c3cccc(C#N)c3)C23CCC3)cc1` (stereo not shown) [Compound 295, 3-(7-(4-bromophenyl)-5-(4-cyanophenyl)-8-hydroxy-6-oxo-5,7-diazaspiro[3.4]octan-8-yl)benzonitrile], the IC50 under setting [1] is under 1000 nM. For the compound `Cc1cc(C)cc(C2(O)[C@H](C)N(c3ccc(Br)cc3)C(=O)N2c2ccc(Br)cc2)c1` (stereo partly shown) [Example 42-1], the IC50 is under 1000 nM. Turning to `O=C1N(c2ccc(Br)cc2)C(=O)C(O)(c2ccc(OC3CC3)cc2)N1c1ccc(Br)cc1` (stereo not shown) [Example 164, 1,3-bis(4-bromophenyl)-5-(4-cyclopropoxyphenyl)-5-hydroxyimidazolidine-2,4-dione], the IC50 was over 50000 nM. Still for that read-out and setting: the value for `Cc1csc(-c2c(C)n(-c3ccc(Br)cc3)c(=O)n2-c2ccc(Br)cc2)c1` [Compound 266, 1,3-bis(4-bromophenyl)-4-methyl-5-(4-methylthiophen-2-yl)-1,3-dihydro-2H-imidazol-2-one] was 1000 to 10000 nM; that for `O=C1N(c2ccc(Br)cc2)C(=O)C(O)(C(F)(F)F)N1c1ccc(Br)cc1` (stereo not shown) [Example 216, 1,3-bis(4-bromophenyl)-5-hydroxy-5-(trifluoromethyl)imidazolidine-2,4-dione] was over 50000 nM. In the case of `CC1(C)N(c2ccc(C#N)cc2)C(=O)N(c2ccc(Cl)cc2)C1(O)c1cccc(OC(F)(F)F)c1` (stereo not shown) [Example 322, 4-(3-(4-chlorophenyl)-4-hydroxy-5,5-dimethyl-2-oxo-4-(3-(trifluoromethoxy)phenyl)imidazolidin-1-yl)benzonitrile], the IC50 under setting [1] is under 1000 nM. On to `C[C@@H]1N(c2ccc(Br)cc2)C(=O)N(c2ccc(Br)cc2)C1(O)c1cccs1` (stereo partly shown) [Example 49-1], for which the IC50 lay in the range of 1000 to 10000 nM.

Take `N#Cc1cccc(C2(O)N(c3ccc(C(F)(F)F)cc3)C(=O)N(c3ccc(C(F)(F)F)cc3)C23COC3)c1` (stereo not shown) [Compound 303, 3-(8-hydroxy-6-oxo-5,7-bis(4-(trifluoromethyl)phenyl)-2-oxa-5,7-diazaspiro[3.4]octan-8-yl)benzonitrile]: under setting [1], the IC50 was under 1000 nM. On to `CC1N(c2ccc(Br)cc2)C(=O)N(c2ccc(Br)cc2)C1(O)c1cccc(Cl)c1` (stereo not shown) [Compound 73, 1,3-bis(4-bromophenyl)-4-(3-chlorophenyl)-4-hydroxy-5-methylimidazolidin-2-one], for which the IC50 was under 1000 nM. On the same count and under the same terms, the value for `O=C1N(c2ccc(Br)cc2)C(=O)C(O)(c2ccccc2)N1c1ccc(Br)cc1` (stereo not shown) [Compound 141, 1,3-bis(4-bromophenyl)-5-hydroxy-5-phenylimidazolidine-2,4-dione] was 10000 to 50000 nM; that for `O=C1N(c2ccc(Cl)cc2)C2(CC2)C(O)(c2cccc(Cl)c2)N1c1ccc(Cl)cc1` (stereo not shown) [Example 228, 7-(3-chlorophenyl)-4,6-bis(4-chlorophenyl)-7-hydroxy-4,6-diazaspiro[24]heptan-5-one] was under 1000 nM. As to `CN1CC2(C1)N(c1ccc(Cl)cc1)C(=O)N(c1ccc(Cl)cc1)C2(O)c1cccc(C#N)c1` (stereo not shown) [Compound 301, 3-(5,7-bis(4-chlorophenyl)-8-hydroxy-2-methyl-6-oxo-2,5,7-triazaspiro[3.4]octan-8-yl)benzonitrile 2,2,2-trifluoroacetate], the IC50 under setting [1] is under 1000 nM. Turning to `O=C1N(c2ccc(Cl)cc2)C2(CCC2)C(O)(c2cccc(OC(F)F)c2)N1c1ccc(Cl)cc1` (stereo not shown) [Example 165, 5,7-bis(4-chlorophenyl)-8-(3-(difluoromethoxy)phenyl)-8-hydroxy-5,7-diazaspiro[3.4]octan-6-one], the IC50 is under 1000 nM. In the case of `N#Cc1ccc(N2C(=O)N(c3ccc(C#N)cc3)C(O)(c3cccc(OC(F)(F)F)c3)C23CCCC3)cc1` (stereo not shown) [Example 326, 4,4′-(4-hydroxy-2-oxo-4-(3-(trifluoromethoxy)phenyl)-1,3-diazaspiro[4.4]nonane-1,3-diyl)dibenzonitrile], under setting [1], the IC50 is under 1000 nM. For `O=C1N(c2ccc(Br)cc2)C(=O)C(O)(c2ccc(N3CCCCC3)cc2)N1c1ccc(Br)cc1` (stereo not shown) [Example 173, 1,3-bis(4-bromophenyl)-5-hydroxy-5-(4-(piperidin-1-yl)phenyl)imidazolidine-2,4-dione], the IC50 was over 50000 nM.

As for `O=C1N(c2ccc(Cl)cc2)C2(CC2)C(O)(c2cccc(OC(F)F)c2)N1c1ccc(Cl)cc1` (stereo not shown) [Compound 236, 4,6-bis(4-chlorophenyl)-7-(3-(difluoromethoxy)phenyl)-7-hydroxy-4,6-diazaspiro[2.4]heptan-5-one], the IC50 was under 1000 nM. With `CC(C)C1(c2cccc(C#N)c2)C(O)N(c2ccc(Cl)cc2)C(=O)N1c1ccc(Cl)cc1` (stereo not shown) [Example 231, 3-(1,3-bis(4-chlorophenyl)-5-hydroxy-4-isopropyl-2-oxoimidazolidin-4-yl)benzonitrile], the IC50 was 1000 to 10000 nM.

For the compound `CCC[C@@H]1N(c2ccc(Br)cc2)C(=O)N(c2ccc(Br)cc2)C1(O)c1cccc(CC)c1` (stereo partly drawn) [Compound 88-1, (5S)-1,3-bis(4-bromophenyl)-4-(3-ethylphenyl)-4-hydroxy-5-propylimidazolidin-2-one], the IC50 is under 1000 nM. On the same count and under the same terms, in the case of `C#Cc1cccc(C2(O)[C@H](C)N(c3ccc(Cl)cc3)C(=O)N2c2ccc(Cl)cc2)c1` (stereo partly drawn) [Compound 93-1, (5S)-1,3-bis(4-chlorophenyl)-4-(3-ethynylphenyl)-4-hydroxy-5-methylimidazolidin-2-one] it was under 1000 nM. As for `N#Cc1cccc(C2(O)N(c3ccc(Cl)cc3)C(=O)N(c3ccc(Cl)cc3)[C@@]23CCOC3)c1` (stereo partly drawn) [Example 221-2, 3-((5R)-1,3-bis(4-chlorophenyl)-4-hydroxy-2-oxo-7-oxa-1,3-diazaspiro[4.4]nonan-4-yl)benzonitrile], the IC50 is under 1000 nM. For `O=C1N(c2ccccc2)C2(CCC2)C(O)(c2cccc(OC(F)(F)F)c2)N1c1ccc(Cl)cc1` (stereo not shown) [Example 334, 7-(4-chlorophenyl)-8-hydroxy-5-phenyl-8-(3-(trifluoromethoxy)phenyl)-5,7-diazaspiro[3.4]octan-6-one], the IC50 under setting [1] was under 1000 nM. `CCCC1N(c2ccc(Cl)cc2)C(=O)N(c2ccc(Cl)cc2)C1(O)c1cccc(C(F)(F)F)c1` (stereo not shown) [Compound 87, 1,3-bis(4-chlorophenyl)-4-hydroxy-5-propyl-4-(3-(trifluoromethyl)phenyl)imidazolidin-2-one]: the IC50 is under 1000 nM. Still for that read-out and setting: the value for `Cc1ccc(N2C(=O)N(c3ccc(C)cc3)C(O)(c3cccc(OC(F)(F)F)c3)[C@H]2C(C)C)cc1` (single isomer, unassigned) [Compound 235-2] was under 1000 nM; that for `N#Cc1cccc(C2(O)[C@H](CC3CC3)N(c3ccc(Cl)cc3)C(=O)N2c2ccc(Cl)cc2)c1` (single isomer, unassigned) [Compound 132-1] was 1000 to 10000 nM. For `Cc1c(-c2cccc(OC(F)(F)F)c2)n(-c2ccc(Br)cc2)c(=O)n1-c1ccc(Br)cc1` [Compound 262, 1,3-bis(4-bromophenyl)-4-methyl-5-(3-(trifluoromethoxy)phenyl)-1,3-dihydro-2H-imidazol-2-one], the IC50 was in the range of 1000 to 10000 nM. On the same count and under the same terms, in the case of `CC(C)c1c(-c2cccc(C#N)c2)n(-c2ccc(Br)cc2)c(=O)n1-c1ccc(Br)cc1` [Example 46, 3-(1,3-bis(4-bromophenyl)-5-isopropyl-2-oxo-2,3-dihydro-1H-imidazol-4-yl)benzonitrile] it was under 1000 nM; in that of `C#Cc1cccc(C2(O)CN(c3ccc(Cl)cc3)C(=O)N2c2ccc(Cl)cc2)c1` (stereo not shown) [Compound 60, 1,3-bis(4-chlorophenyl)-4-(3-ethynylphenyl)-4-hydroxyimidazolidin-2-one], under 1000 nM. `CC1(C(F)(F)F)N(c2ccc(Cl)cc2)C(=O)N(c2ccc(Cl)cc2)C1(O)c1cc(C#N)cc(C#N)c1` (racemic) [Example 331, 5-((5S)-1,3-bis(4-chlorophenyl)-4-hydroxy-5-methyl-2-oxo-5-(trifluoromethyl)imidazolidin-4-yl)isophthalonitrile and 5-((5R)-1,3-bis(4-chlorophenyl)-4-hydroxy-5-methyl-2-oxo-5-(trifluoromethyl)imidazolidin-4-yl)isophthalonitrile]: the IC50 under setting [1] is under 1000 nM.

`O=C1N(c2ccc(Cl)cc2)CC(O)(c2cc(Cl)cc(Cl)c2)N1c1ccc(Cl)cc1` (stereo not shown) [Compound 85, 1,3-bis(4-chlorophenyl)-4-(3,5-dichlorophenyl)-4-hydroxyimidazolidin-2-one]: the IC50 was 1000 to 10000 nM. Still for that read-out and setting: in the case of `CCC1(O)C(c2ccccc2)N(c2ccc(Br)cc2)C(=O)N1c1ccc(Br)cc1` (stereo not shown) [Example 45] it was 1000 to 10000 nM; in that of `CC[C@H]1N(c2ccc(F)cc2)C(=O)N(c2ccc(F)cc2)C1(O)c1cccc(C(F)(F)F)c1` (single isomer, unassigned) [Compound 139-2], under 1000 nM.

Values taken from US20190134005A1 (BioMarin Pharmaceutical Inc., priority 2016, published 2019).
